Experimental data published in patent US12473304B2, “Heterocyclic PAD4 inhibitors” (BRISTOL-MYERS SQUIBB COMPANY, priority 2020, dated 2025).
pIC50: −log10 of the molar value.

Target: human PAD4 (hPAD4) (Homo sapiens (Human), UniProt Q9UM07)
Assay: RFMS Human PAD4 Functional Assay 1
Assay type: biochemical
Conditions: RFMS assay 1; 5 nM hPAD4, 250 μM BAEE substrate, 50 μM calcium, 37° C.
Procedure, shortened: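 Recombinant hPAD4 (5 nM) was preincubated with compound (top 50 μM, 0.5% DMSO) for 30 min at 37 °C, then reacted with 250 μM BAEE for 90 min at 37 °C in pH 7.5 HEPES buffer with 50 μM calcium and 5 μM TPEN. Product was derivatized with phenyl glyoxal and quantified by RapidFire MS.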

human PAD4 (hPAD4), sequence (Q9UM07 whole entry): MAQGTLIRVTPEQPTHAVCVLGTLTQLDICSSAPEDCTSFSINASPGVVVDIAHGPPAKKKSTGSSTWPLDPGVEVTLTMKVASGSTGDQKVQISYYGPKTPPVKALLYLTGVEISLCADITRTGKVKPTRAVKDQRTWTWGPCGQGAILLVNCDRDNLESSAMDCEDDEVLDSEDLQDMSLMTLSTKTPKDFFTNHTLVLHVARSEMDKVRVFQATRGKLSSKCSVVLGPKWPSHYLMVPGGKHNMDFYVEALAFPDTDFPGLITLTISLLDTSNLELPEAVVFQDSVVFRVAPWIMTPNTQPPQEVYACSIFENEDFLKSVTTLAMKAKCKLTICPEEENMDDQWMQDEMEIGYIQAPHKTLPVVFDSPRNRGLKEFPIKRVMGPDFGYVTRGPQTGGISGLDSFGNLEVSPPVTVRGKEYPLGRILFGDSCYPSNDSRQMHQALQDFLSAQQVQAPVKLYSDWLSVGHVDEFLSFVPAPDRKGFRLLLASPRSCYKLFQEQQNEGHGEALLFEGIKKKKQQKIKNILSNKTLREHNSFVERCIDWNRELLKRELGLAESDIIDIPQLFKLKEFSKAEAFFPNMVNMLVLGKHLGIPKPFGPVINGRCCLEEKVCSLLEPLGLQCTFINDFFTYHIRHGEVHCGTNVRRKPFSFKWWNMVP

| Compound | pIC50 |
| --- | --- |
| COc1cc(C(=O)N2C[C@H](N)C[C@@H](F)C2)cc2oc(-c3cc4cccnc4n3CC3CC3)c(C)c12 [Example 147, ((3R,5R)-3-Amino-5-fluoropiperidin-1-yl)(2-(1-(cyclopropylmethyl)-1H-pyrrolo[2,3-b]pyridin-2-yl)-4-methoxy-3-methylbenzofuran-6-yl)methanone] | 6.02 |
| COc1cc(C(=O)N2CC3CCC2[C@@H]3N)cc2oc(-c3cc4ccccc4n3CC3CC3)c(C)c12 (stereo partly drawn) [Example 148, ((7R)-7-Amino-2-azabicyclo[2.2.1]heptan-2-yl)(2-(1-(cyclopropylmethyl)-1H-indol-2-yl)-4-methoxy-3-methylbenzofuran-6-yl)methanone] | 6.35 |
| COc1cc(C(=O)N2CC3CCC2[C@@H]3N)cc2oc(-c3cc4ccc(-c5ccc6c(c5)CNC6=O)cc4n3CC3CC3)c(C)c12 (stereo partly drawn) [Example 149, 5-(2-(6-((7R)-7-Amino-2-azabicyclo[2.2.1]heptane-2-carbonyl)-4-methoxy-3-methylbenzofuran-2-yl)-1-(cyclopropylmethyl)-1H-indol-6-yl)isoindolin-1-one] | 6.95 |
| COc1cc(C(=O)N2CC3CCC2[C@@H]3N)cc2oc(-c3cc4ccc(-c5ccc6c(c5)C(=O)NC6)cc4n3CC3CC3)c(C)c12 (stereo partly drawn) [Example 150, 6-(2-(6-((7R)-7-Amino-2-azabicyclo[2.2.1]-heptane-2-carbonyl)-4-methoxy-3-methylbenzofuran-2-yl)-1-(cyclopropylmethyl)-1H-indol-6-yl)isoindolin-1-one] | 6.73 |
| COc1cc(C(=O)N2CC3CCC2[C@@H]3N)cc2oc(-c3cc4ccc(C)cc4n3CC3CC3)c(C)c12 (stereo partly drawn) [Example 151, ((7R)-7-Amino-2-azabicyclo[2.2.1]heptan-2-yl)(2-(1-(cyclopropylmethyl)-6-methyl-1H-indol-2-yl)-4-methoxy-3-methylbenzofuran-6-yl)methanone] | 6.49 |
| COc1cc(C(=O)N2CC3CCC2[C@@H]3N)cc2oc(-c3cc4ccc(-c5ccc(C(N)=O)c(F)c5)cc4n3CC3CC3)c(C)c12 (stereo partly drawn) [Example 152, 4-(2-(6-((7R)-7-Amino-2-azabicyclo[2.2.1]heptane-2-carbonyl)-4-methoxy-3-methylbenzofuran-2-yl)-1-(cyclopropylmethyl)-1H-indol-6-yl)-2-fluorobenzamide] | 6.72 |
| COc1cc(C(=O)N2CC3CCC2[C@@H]3N)cc2oc(-c3cc4ccc(-c5ccc(C(N)=O)c(Cl)c5)cc4n3CC3CC3)c(C)c12 (stereo partly drawn) [Example 153, 4-(2-(6-((7R)-7-Amino-2-azabicyclo[2.2.1]heptane-2-carbonyl)-4-methoxy-3-methylbenzofuran-2-yl)-1-(cyclopropylmethyl)-1H-indol-6-yl)-2-chlorobenzamide] | 6.20 |
| COc1cc(C(=O)N2CC3CCC2[C@@H]3N)cc2oc(-c3cc4ccc(-c5ccc(O)c(F)c5)cc4n3CC3CC3)c(C)c12 (stereo partly drawn) [Example 154, ((7R)-7-Amino-2-azabicyclo[2.2.1]heptan-2-yl)(2-(1-(cyclopropylmethyl)-6-(3-fluoro-4-hydroxyphenyl)-1H-indol-2-yl)-4-methoxy-3-methylbenzofuran-6-yl)methanone] | 5.99 |
| COc1cc(C(=O)N2CC3CCC2[C@@H]3N)cc2oc(-c3cc4ccc(C5CC5)cc4n3CC3CC3)c(C)c12 (stereo partly drawn) [Example 156, ((7R)-7-Amino-2-azabicyclo[2.2.1]heptan-2-yl)(2-(6-cyclopropyl-1-(cyclopropylmethyl)-1H-indol-2-yl)-4-methoxy-3-methylbenzofuran-6-yl)methanone] | 6.76 |
| COc1cc(C(=O)N2CC3CCC2[C@@H]3N)cc2oc(-c3cc4ccc(-c5ccn6c(C)nnc6c5)cc4n3CC3CC3)c(C)c12 (stereo partly drawn) [Example 157, ((7R)-7-Amino-2-azabicyclo[2.2.1]heptan-2-yl)(2-(1-(cyclopropylmethyl)-6-(3-methyl-[1,2,4]triazolo[4,3-a]pyridin-7-yl)-1H-indol-2-yl)-4-methoxy-3-methylbenzofuran-6-yl)methanone] | 7.02 |
| COc1cc(C(=O)N2CC3CCC2[C@@H]3N)cc2oc(-c3cc4ccc(N5CCC(OC)CC5)cc4n3CC3CC3)c(C)c12 (stereo partly drawn) [Example 159, ((7R)-7-Amino-2-azabicyclo[2.2.1]heptan-2-yl)(2-(1-(cyclopropylmethyl)-6-(4-methoxypiperidin-1-yl)-1H-indol-2-yl)-4-methoxy-3-methylbenzofuran-6-yl)methanone] | 5.92 |
| COc1cc(C(=O)N2CC3CCC2[C@@H]3N)cc2oc(-c3cc4ccc(N5CCC(N)CC5)cc4n3CC3CC3)c(C)c12 (stereo partly drawn) [Example 160, ((7R)-7-Amino-2-azabicyclo[2.2.1]heptan-2-yl)(2-(6-(4-aminopiperidin-1-yl)-1-(cyclopropylmethyl)-1H-indol-2-yl)-4-methoxy-3-methylbenzofuran-6-yl)methanone] | 7.32 |
| COc1cc(C(=O)N2C[C@H](N)C[C@@H](F)C2)cc2oc(-c3cc4ccccc4n3CC3CC3)c(C)c12 [Example 161, ((3R,5R)-3-Amino-5-fluoropiperidin-1-yl)(2-(1-(cyclopropylmethyl)-1H-indol-2-yl)-4-methoxy-3-methylbenzofuran-6-yl)methanone] | 6.31 |
| COc1cc(C(=O)N2C[C@H](N)C[C@@H](F)C2)cc2oc(-c3cc4ccc(-c5ccc(C(N)=O)c(Cl)c5)cc4n3CC3CC3)c(C)c12 [Example 162, 4-(2-(6-((3R,5R)-3-Amino-5-fluoropiperidine-1-carbonyl)-4-methoxy-3-methylbenzofuran-2-yl)-1-(cyclopropylmethyl)-1H-indol-6-yl)-2-chlorobenzamide] | 5.64 |
| COc1cc(C(=O)N2C[C@H](N)C[C@@H](F)C2)cc2oc(-c3cc4ccc(-c5cccc(O)c5F)cc4n3CC3CC3)c(C)c12 [Example 163, ((3R,5R)-3-Amino-5-fluoropiperidin-1-yl)(2-(1-(cyclopropylmethyl)-6-(2-fluoro-3-hydroxyphenyl)-1H-indol-2-yl)-4-methoxy-3-methylbenzofuran-6-yl)methanone] | 5.25 |
| Cc1c(-c2cc3cccnc3n2CC2CC2)oc2cc(C(=O)N3CC4CCC3[C@@H]4N)ccc12 (stereo partly drawn) [Example 164, ((7R)-7-Amino-2-azabicyclo[2.2.1]heptan-2-yl)(2-(1-(cyclopropylmethyl)-1H-pyrrolo[2,3-b]pyridin-2-yl)-3-methylbenzofuran-6-yl)methanone] | 6.20 |
| Cc1c(-c2cc3ccc(Cl)nc3n2CC2CC2)oc2cc(C(=O)N3CC4CCC3[C@@H]4N)ccc12 (stereo partly drawn) [Example 165, ((7R)-7-Amino-2-azabicyclo[2.2.1]heptan-2-yl)(2-(6-chloro-1-(cyclopropylmethyl)-1H-pyrrolo[2,3-b]pyridin-2-yl)-3-methylbenzofuran-6-yl)methanone] | 6.70 |
| Cc1c(-c2cc3ccc(-c4ccc5c(c4)C(=O)NC5)nc3n2CC2CC2)oc2cc(C(=O)N3CC4CCC3[C@@H]4N)ccc12 (stereo partly drawn) [Example 166, 6-(2-(6-((7R)-7-Amino-2-azabicyclo[2.2.1]heptane-2-carbonyl)-3-methylbenzofuran-2-yl)-1-(cyclopropylmethyl)-1H-pyrrolo[2,3-b]pyridin-6-yl)isoindolin-1-one] | 7.25 |
| Cc1c(-c2cc3ccc(-c4ccn5c(C)nnc5c4)nc3n2CC2CC2)oc2cc(C(=O)N3CC4CCC3[C@@H]4N)ccc12 (stereo partly shown) [Example 167] | 7.35 |
